PubChem BioAssay AID1919009 (Molecular Pharmacology Branch, DTP, NCI, 2023)

System: K24384-001-R-PDC complex spheroid growth
Test: Anticancer human tumor K24384-001-R-PDC patient-derived pancreatic adenocarcinoma cell line growth inhibition [AhR]
Conditions: for IC50: curve of first compound; for viability, T/C: stronger effect = lower value
Procedure, shortened: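 Complex tumor spheroids co-cultured with HUVEC and human MSC stroma; AhR antagonists tested in combination with standard-of-care and investigational agents. Top concentration at or near clinical Cmax (else 10 microM), half-log dilutions; growth expressed as percent test/control.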

[1] = second compound 0.1 µM, first compound 0.00949 µM
[2] = second compound 0.1 µM, first compound 0.03 µM
[3] = second compound 0.1 µM, first compound 0.0949 µM
[4] = second compound 0.1 µM, first compound 0.3 µM
[5] = second compound 0.1 µM, first compound 0.949 µM
[6] = second compound 0.1 µM, first compound 3 µM
[7] = second compound 0.316 µM, first compound 0.00949 µM
[8] = second compound 0.316 µM, first compound 0.03 µM
[9] = second compound 0.316 µM, first compound 0.0949 µM
[10] = second compound 0.316 µM, first compound 0.3 µM
[11] = second compound 0.316 µM, first compound 0.949 µM
[12] = second compound 0.316 µM, first compound 3 µM
[13] = second compound 1 µM, first compound 0.00949 µM
[14] = second compound 1 µM, first compound 0.03 µM
[15] = second compound 1 µM, first compound 0.0949 µM
[16] = second compound 1 µM, first compound 0.3 µM
[17] = second compound 1 µM, first compound 0.949 µM
[18] = second compound 1 µM, first compound 3 µM
[19] = second compound 3.16 µM, first compound 0.00949 µM
[20] = second compound 3.16 µM, first compound 0.03 µM
[21] = second compound 3.16 µM, first compound 0.0949 µM
[22] = second compound 3.16 µM, first compound 0.3 µM
[23] = second compound 3.16 µM, first compound 0.949 µM
[24] = second compound 3.16 µM, first compound 3 µM
[25] = second compound 10 µM, first compound 0.00949 µM
[26] = second compound 10 µM, first compound 0.03 µM
[27] = second compound 10 µM, first compound 0.0949 µM
[28] = second compound 10 µM, first compound 0.3 µM
[29] = second compound 10 µM, first compound 0.949 µM
[30] = second compound 10 µM, first compound 3 µM
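Throughout, for viability, T/C: percent of DMSO vehicle-treated spheroid viability set as 100%.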

Compound: CCN(c1cc(-c2ccc(CN3CCOCC3)cc2)cc(C(=O)NCc2c(C)cc(C)[nH]c2=O)c1C)C1CCOCC1 + CC(CO)NC(=O)c1cc(-c2ccc(Cl)cc2)nn(-c2cnn(C)c2)c1=O
- IC50 (second compound 0.1 µM): > 3000 nM
- IC50 (second compound 0.316 µM): > 3000 nM
- IC50 (second compound 1 µM): > 3000 nM
- IC50 (second compound 3.16 µM): > 3000 nM
- IC50 (second compound 10 µM): > 3000 nM
- viability, T/C [1]: 119%
- viability, T/C [2]: 125%
- viability, T/C [3]: 122%
- viability, T/C [4]: 107%
- viability, T/C [5]: 95.4%
- viability, T/C [6]: 91.8%
- viability, T/C [7]: 117%
- viability, T/C [8]: 135%
- viability, T/C [9]: 125%
- viability, T/C [10]: 120%
- viability, T/C [11]: 98.2%
- viability, T/C [12]: 98.9%
- viability, T/C [13]: 107%
- viability, T/C [14]: 139%
- viability, T/C [15]: 154%
- viability, T/C [16]: 144%
- viability, T/C [17]: 102%
- viability, T/C [18]: 90.8%
- viability, T/C [19]: 122%
- viability, T/C [20]: 123%
- viability, T/C [21]: 113%
- viability, T/C [22]: 119%
- viability, T/C [23]: 113%
- viability, T/C [24]: 119%
- viability, T/C [25]: 117%
- viability, T/C [26]: 123%
- viability, T/C [27]: 118%
- viability, T/C [28]: 107%
- viability, T/C [29]: 99.4%
- viability, T/C [30]: 102%

Compound: Nc1ncn(C2CC(O)C(CO)S2)c(=O)n1 (stereo not given) + CC(CO)NC(=O)c1cc(-c2ccc(Cl)cc2)nn(-c2cnn(C)c2)c1=O
- IC50 (second compound 0.1 µM): > 300 nM
- IC50 (second compound 0.316 µM): > 300 nM
- IC50 (second compound 1 µM): > 300 nM
- IC50 (second compound 3.16 µM): > 300 nM
- IC50 (second compound 10 µM): > 300 nM
- viability, T/C (second compound 0.1 µM, first compound 0.000949 µM): 115%
- viability, T/C (second compound 0.1 µM, first compound 0.003 µM): 126%
- viability, T/C [1]: 114%
- viability, T/C [2]: 74.6%
- viability, T/C [3]: 84.4%
- viability, T/C [4]: 72.4%
- viability, T/C (second compound 0.316 µM, first compound 0.000949 µM): 118%
- viability, T/C (second compound 0.316 µM, first compound 0.003 µM): 130%
- viability, T/C [7]: 134%
- viability, T/C [8]: 88.3%
- viability, T/C [9]: 98.2%
- viability, T/C [10]: 69.8%
- viability, T/C (second compound 1 µM, first compound 0.000949 µM): 137%
- viability, T/C (second compound 1 µM, first compound 0.003 µM): 127%
- viability, T/C [13]: 148%
- viability, T/C [14]: 125%
- viability, T/C [15]: 92.2%
- viability, T/C [16]: 65.5%
- viability, T/C (second compound 3.16 µM, first compound 0.000949 µM): 87.3%
- viability, T/C (second compound 3.16 µM, first compound 0.003 µM): 124%
- viability, T/C [19]: 119%
- viability, T/C [20]: 118%
- viability, T/C [21]: 92.6%
- viability, T/C [22]: 76.2%
- viability, T/C (second compound 10 µM, first compound 0.000949 µM): 105%
- viability, T/C (second compound 10 µM, first compound 0.003 µM): 106%
- viability, T/C [25]: 136%
- viability, T/C [26]: 107%
- viability, T/C [27]: 105%
- viability, T/C [28]: 83.4%

Compound: O=C(C=Cn1cnc(-c2cc(C(F)(F)F)cc(C(F)(F)F)c2)n1)NNc1cnccn1 + CC(CO)NC(=O)c1cc(-c2ccc(Cl)cc2)nn(-c2cnn(C)c2)c1=O
- IC50 (second compound 0.1 µM): 280 nM
- IC50 (second compound 0.316 µM): 298 nM
- IC50 (second compound 1 µM): 246 nM
- IC50 (second compound 3.16 µM): 236 nM
- IC50 (second compound 10 µM): 212 nM
- viability, T/C [1]: 107%
- viability, T/C [2]: 108%
- viability, T/C [3]: 80.1%
- viability, T/C [4]: 48.7%
- viability, T/C [5]: 34.1%
- viability, T/C [6]: 28.1%
- viability, T/C [7]: 102%
- viability, T/C [8]: 99.3%
- viability, T/C [9]: 74.8%
- viability, T/C [10]: 52%
- viability, T/C [11]: 30.5%
- viability, T/C [12]: 26.6%
- viability, T/C [13]: 86.1%
- viability, T/C [14]: 102%
- viability, T/C [15]: 72.1%
- viability, T/C [16]: 46.5%
- viability, T/C [17]: 33.4%
- viability, T/C [18]: 28.6%
- viability, T/C [19]: 77.8%
- viability, T/C [20]: 94.3%
- viability, T/C [21]: 79.6%
- viability, T/C [22]: 41.8%
- viability, T/C [23]: 29.6%
- viability, T/C [24]: 23.3%
- viability, T/C [25]: 76.2%
- viability, T/C [26]: 82.3%
- viability, T/C [27]: 70.7%
- viability, T/C [28]: 41%
- viability, T/C [29]: 29.3%
- viability, T/C [30]: 27.3%
